Earlier results, collected in patent US9738932B2, “Biomarkers for cardiovascular side-effects induced by cox-2 inhibitory compounds” (FIRALIS SAS, priority 2005, dated 2017).

Test system: CXCL10 synthesis
Details: by preventing PGE2 production and PKA activation; cited from earlier work

CS(=O)(=O)Nc1ccc([N+](=O)[O-])cc1OC1CCCCC1 [NS398]
effect on CXCL10 synthesis upon INFγ stimulation: potentiates
